Results on 5 compounds are retold here after patent publication US6399614B1, “1-(N-phenylaminoalkyl)piperazine derivatives substituted at position 2 of the phenyl ring” (Recordati S.A. Chemical and Pharmaceutical Company, priority 1997, dated 2002).

Assay [1] concerns the target T1, human 5-HT1A serotonergic receptor (Homo sapiens, UniProt P08908).
T1 construct: expressed in transfected cells; host or cells: HeLa
T1 sequence (P08908 1-422): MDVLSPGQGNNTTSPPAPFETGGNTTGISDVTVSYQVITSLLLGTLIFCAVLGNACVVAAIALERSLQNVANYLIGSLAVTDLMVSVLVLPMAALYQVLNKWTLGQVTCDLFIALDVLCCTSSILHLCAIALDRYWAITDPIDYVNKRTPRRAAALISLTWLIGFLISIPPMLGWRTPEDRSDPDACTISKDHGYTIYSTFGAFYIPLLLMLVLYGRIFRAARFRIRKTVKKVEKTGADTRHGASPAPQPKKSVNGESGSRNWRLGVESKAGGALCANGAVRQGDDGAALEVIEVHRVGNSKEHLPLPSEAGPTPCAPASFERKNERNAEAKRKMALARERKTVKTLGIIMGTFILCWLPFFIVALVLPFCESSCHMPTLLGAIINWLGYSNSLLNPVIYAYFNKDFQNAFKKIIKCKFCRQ
In words: Radioreceptor binding, recombinant human 5-HT1A receptors ([3H]8-OH-DPAT, HeLa membranes). As to conditions: for Ki: recombinant human receptor, [3H]8-OH-DPAT, Ki from IC50 by Cheng & Prusoff, read-out: Binding affinity for the 5-HT1A receptor, Ki. The method, boiled down:
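Membranes from HeLa cells stably transfected with human 5-HT1A clone G-21 incubated 30 min at 30° C with 0.2-1 nM [3H]8-OH-DPAT in 50 mM Tris HCl pH 7.4, 2.5 mM MgCl2, 10 μM pargiline; nonspecific binding with 10 μM 5-HT. Filtration assay; IC50 from curve fitting converted to Ki by Cheng-Prusoff.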

Assay [2] has as its target T2, post-synaptic 5-HT1A receptor (Rattus norvegicus, UniProt P19327).
T2 construct: from tissue; host or cells: whole animal, male Sprague-Dawley rats
T2 sequence (P19327 1-422): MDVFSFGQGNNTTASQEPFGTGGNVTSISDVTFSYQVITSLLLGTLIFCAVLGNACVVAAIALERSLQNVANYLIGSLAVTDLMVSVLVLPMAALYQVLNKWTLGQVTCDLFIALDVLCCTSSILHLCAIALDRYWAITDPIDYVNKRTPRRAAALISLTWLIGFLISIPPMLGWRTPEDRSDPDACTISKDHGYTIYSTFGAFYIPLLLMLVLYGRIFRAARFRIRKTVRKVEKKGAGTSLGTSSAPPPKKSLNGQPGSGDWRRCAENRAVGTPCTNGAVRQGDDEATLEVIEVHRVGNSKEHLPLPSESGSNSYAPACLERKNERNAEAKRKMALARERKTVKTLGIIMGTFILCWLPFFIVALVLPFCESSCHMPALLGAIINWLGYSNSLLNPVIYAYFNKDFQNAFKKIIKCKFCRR
Description: Inhibition of forepaw treading induced by 8-OH-DPAT in rats (post-synaptic antagonism). Format: in vivo. As to conditions: for ED50: rat, iv, read-out: Post-synaptic 5-HT1A ID50, heading: Post-synaptic 5-HT1A ID50, dose blocking 50% of forepaw treading induced by 1 mg/kg s.c. 8-OH-DPAT in rats, compound i.v. As for the experimental part: The inhibitory effect of 5-HT1A receptor antagonists on the forepaw treading induced in rats by subcutaneous injection of 8-OH-DPAT was evaluated by the method of Tricklebank (Tricklebank et al., Eur. J.Pharmacol., 117:15, 1985) with minor modifications as described below. Male Sprague-Dawley rats (150-175 g) obtained from Charles River (Italy), were housed in a climate-controlled room and maintained on a 12 h light/dark cycle with free access to food and water. On the day of experiment, rats were placed singly in clear plastic boxes. Rats were treated with reserpine, 1 mg/kg s.c., 18-24 h before the test to deplete intracellular stores of noradrenaline. For evaluation of antagonistic activity, compounds were i.v. administered 16 min before 8-OH-DPAT (1 mg/kg s.c.). Observation sessions of 30 s duration began 3 min after treatment with the agonist and were repeated every 3 min over a period of 15 min. The appearance of the forepaw treading symptom induced by postsynaptic stimulation of the 5HT1A receptors was noted, and its intensity was scored using a ranked intensity scale in which: 0=absent, 1=equivocal, 2=present and 3=intense. Behavioral scores for each treated rat were accumulated over the time course (5 observation periods) and expressed as mean values of 8-10 rats. A linear regression equation was used in order to evaluate ID50 values, defined as the dose of antagonist needed to block 50% of the forepaw treading intensity induced by 1 mg/kg 8-OH-DPAT administered subcutaneously.

Turning to `COc1ccccc1N1CCN(CCN(C(=O)C2CCCCC2)c2ccccc2)CC1` [Compound A, 1-(N-phenyl-N-cyclohexylcarbonyl-2-aminoethyl)-4-(2-methoxyphenyl)piperazine, reference compound], in assay [1], the “affinity for 5-HT1A receptors (in words)” value is listed as “very high affinity”. Also, in assay [2] (forepaw treading model in rats), the “fold less active than compound of Example 2, post-synaptic model” value is given as “at least 10 fold”. In addition, the ED50 in assay [2] turned out to be 0.35 mg/kg.

With `O=C(C1CCCCC1)N(CCN1CCN(c2cccc3[nH]ccc23)CC1)c1ccccc1[N+](=O)[O-]` [Example 13, 1-[N-(2-nitrophenyl)-N-cyclohexylcarbonyl-2-aminoethyl]-4-(4-indolyl)piperazine], the Ki in assay [1] stood at 500 pM. Further, the ED50 in assay [2] worked out at 0.082 mg/kg.

As to `COC(=O)c1ccccc1N(CCN1CCN(c2ccccc2OC)CC1)C(=O)C1CCCCC1` [Example 18, 1-[N-(2-methoxycarbonylphenyl)-N-cyclohexylcarbonyl-2-aminoethyl]-4-(2-methoxyphenyl)piperazine], in assay [1], the Ki was found to be 600 pM. Besides, the ED50 in assay [2] came to 0.084 mg/kg.

For `COc1ccccc1N1CCN(CCN(C(=O)C2CCCCC2)c2ccccc2[N+](=O)[O-])CC1` [Example 2, 1-[N-(2-nitrophenyl)-N-cyclohexylcarbonyl-2-aminoethyl]-4-(2-methoxyphenyl) piperazine], the “affinity for 5-HT1A receptors (in words)” value in assay [1] is “very high affinity”. The ED50 in assay [2] came to 0.036 mg/kg.

For `COc1ccccc1N1CCN(CCN(C(=O)C2CCCCC2)c2ccccc2OC)CC1` [Example 23, 1-[N-(2-methoxyphenyl)-N-cyclohexylcarbonyl-2-aminoethyl]-4-(2-methoxyphenyl)piperazine], the inhibition constant (Ki) in assay [1] was found to be 140 pM. Also, in assay [2], the ED50 is 0.177 mg/kg.
